“Also recorded” adds a separate entry of the source.
How the values were obtained:
[1] = biological target: T1, Aβ1–42 (Homo sapiens, UniProt P05067); test: Self-induced Aβ1–42 aggregation, thioflavin T (ThT) fluorescence assay; format: biochemical
T1 construct: Aβ1–42 (Adooq Bioscience, CA, USA); purchased Adooq Bioscience
Description: The novel hybrid 8-hydroxyquinoline-indole derivatives, 7a–7e, 12a, 12b, and the (8-hydroxyquinolin-2-yl)methyl-4-(1H-indole-2-carbonyl)piperazine-1-carboxylate analogs 18a–18h were evaluated for inhibitory activity against self-induced Aβ1–42 aggregation at five different concentrations (0.3, 1.0, 3, 9 and 27 µM) with 25 µM Aβ1–42, utilizing a thioflavin T (ThT) fluorescence assay with clioquinol, 1 as a positive control (Figure 3). In the absence of inhibitor, the self-induced Aβ1–42 aggregation ThT fluorescence was recorded as 115 arbitrary units (a.u.). The self-induced Aβ1–42 aggregation results for all the above synthetic analogs from the ThT fluorescence assay are shown in Table 1. […] The thioflavin T (ThT)-fluorescence assay was used to measure the inhibition of Aβ aggregation. Aβ1–42 (Adooq Bioscience, CA, USA) was pretreated with 1 mL of hexafluoroisopropanol (HFIP) to afford a stock solution, which was aliquoted into small samples. The solvent was evaporated at room temperature, and samples were stored at −80 °C. For Aβ1–42 aggregation inhibition experiments, phosphate buffer (pH 7.4) was added to the Aβ stock solution to afford a 50 µM concentration before use. A mixture of the Aβ1–42 peptide (10 µL, 25 µM final concentration) with or without the test compound (10 µL; 0.3, 1.0, 3, 9, and 27 µM) was incubated at 37 °C for 48 h. Blanks using phosphate buffer (pH 7.4) instead of Aβ, with or without test compound, were also assessed. Then 50 mM glycine-NaOH buffer (pH 8.0) containing ThT (5 µM) was added to 20 µL of the sample to afford a final volume of 200 µL. The fluorescence intensities were recorded (excitation, 450 nm; emission, 485 nm). The fluorescence intensities were background corrected to the no enzyme control and 100% of intensity reflected no inhibition of aggregation. To obtain the normalized amyloid aggregation inhibition relative to the control group, the amyloid aggregation/cell values were further divided by the total amyloid fluorescence of the control group. Using GraphPad Prism, the amyloid aggregation values (relative to control group) were entered along the corresponding concentrations for the triplicates and then a log transformation was obtained. Using the dose–response simulation module in GraphPad Prism, nonlinear regression fit (curve) was then generated for each small molecule with various concentrations used. Curves were then compared to determine if they were statistically different, by performing the best-fit values of selected unshared parameters between data sets and extra sum-of-squares F test, allowing for selection of the simpler model unless the P value was less than 0.05. The logEC50 output parameter was then selected to obtain the EC50 for each of the dose–response curves for the small molecules.

[2] = Metal-chelation study by UV-vis spectroscopy and Job's method; format: physicochemical; conditions: compound 50 µM, HEPES buffer pH 7.4, 30 min, shift from 252 nm
Description: Furthermore, the stoichiometry of formation of metal complexes 18f-Cu^2+ and 18f-Zn^2+ was also determined by using Job’s method (Figure 6). The […] shown in Figure 6A,B at 0.6 and 0.5 imply a stoichiometry of 1.5:1 for 18f-Cu^2+ and 1:1 for 18f-Zn^2+.
The chelating studies were performed with a UV–vis spectrophotometer. The absorption spectra of test compound (50 μM, final concentration) alone or in the presence of CuSO4, FeSO4, or ZnCl2 (50 μM, final concentration) in buffer (20 mM HEPES, 150 mM NaCl, pH 7.4) were incubated for 30 min and then recorded at room temperature, respectively. For the stoichiometry of the test compound–Cu^2+ complex or the test compound–Zn^2+ complex, a fixed amount of test compound (50 μM) was mixed with increasing amounts of copper ion or Zn ion (0–100 μM), and the UV–vis difference spectra were analyzed to determine the ratio of ligand/metal ion in the complex.

[3] = tested on: HEK-tau cells; test: Protein aggregation in HEK-tau cells (ThT staining); format: cell-based, Human; conditions: 1 µM, 48 h, 37 °C; compared to clioquinol (1)
Description: In our study, we have shown that restoring metal homeostasis by treatment with hybrid 8-hydroxyquinoline-indole analogs reduces tau- and amyloid-mediated protein aggregation, and their associated neurotoxicity. Analogs 7a–7d, 18c–18f, and 18h were evaluated for their ability to reduce protein aggregation in HEK-tau cells. HEK-tau cells were exposed to the above Aβ1–42 aggregation inhibitors and parent drug clioquinol (1) at 1 µM for 48 h at 37 °C. Cells were assessed for amyloid deposits by staining with 0.1% w/v thioflavin T, counterstaining nuclei with DAPI, and mean ThT fluorescence signal per nucleus was calculated over multiple fields. All the analogs reduced fluorescence intensity (indicative of protein aggregation) by 26–62% (P < 0.001 by 2-tailed t-test).
(§1) Human Embryonic Kidney cells that overexpress tau protein (HEK-tau) cells or SY5Y neuroblastoma cells that express a familial-AD mutant of amyloid precursor protein (SY5Y-APPSw cells) were each seeded in 96-well plates at 8000 cells per well. After 24 h, cells were supplemented with test compound at 1 µM after diluting with medium. Vehicle only control was also included for each experiment. The cells were cultured for an additional 48 h at 37 °C. Both the cell lines were able to reach approximately 80% confluency in 48 h. Cells were assessed for amyloid deposits by staining with 0.1% w/v ThT, counterstaining nuclei with DAPI, and calculating mean ThT fluorescence signal per nucleus over multiple fields.

[4] = tested on: SY5Y-APPSw cells; test: Protein aggregation in SY5Y-APPSw cells (ThT staining); format: cell-based; conditions: 1 µM, 48 h, 37 °C; compared to clioquinol (1)
Description: In another study compounds 7a–7d, 18c–18f, and 18h were also evaluated for their ability to reduce protein aggregation in SY5Y-APPSw cells. SY5Y-APPSw cells were exposed to the above protein aggregation inhibitors and parent compound 1 at 1 µM for 48 h at 37 °C. Cells were assessed for amyloid deposits by staining with 0.1% w/v ThT, counterstaining nuclei with DAPI, and mean ThT fluorescence signal per nucleus calculated over multiple fields. All the analogs reduced fluorescence intensity (indicative of protein aggregation) by 22–67% (P < 0.001 by 2-tailed t-test). […] Thioflavin-T fluorescence assays for in vitro amyloid aggregation and cell culture models of amyloid aggregation overlap but are not identical. This is due to the fact that thioflavin in cell-culture stains not just amyloid aggregates but also other amyloid-like fibrillar structures. Another important difference is that in vitro aggregation is assessed after 24 h, whereas aggregation in cell culture is assessed after 48 h.
as §1

T1 sequence (P05067 672-713 limits assumed): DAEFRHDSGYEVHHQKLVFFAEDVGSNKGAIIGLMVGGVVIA

SMILES: COc1ccc2[nH]c(C(=O)N3CCN(C(=O)OCc4ccc5c(Cl)cc(Cl)c(O)c5n4)CC3)cc2c1 [Compound 18f, (5,7-Dichloro-8-hydroxyquinolin-2-yl)methyl-4-(5-methoxy-1H-indole-2-carbonyl)piperazine-1-carboxylate]
- EC50 ([1]; 25 µM Aβ1–42, compound 0.3-27 µM, 37 °C, 48 h, ThT fluorescence, read-out: EC50 against self-induced Aβ1–42 aggregation): 1.08 µM
- improvement in inhibitory potency over clioquinol (1), Aβ1–42 self-aggregation ([1]; relative to 1): 10 fold
- maximum absorption wavelength in the presence of Cu^2+ ([2]; CuSO4 50 µM): 274 nm
- maximum absorption wavelength in the presence of Fe^2+ ([2]; FeSO4 50 µM): 255 nm
- maximum absorption wavelength in the presence of Zn^2+ ([2]; ZnCl2 50 µM): 269 nm
- protein aggregation inhibition in HEK-tau cells, result in words [3]: most effective; also recorded: effective in reducing protein aggregation
- protein aggregation inhibition in SY5Y-APPSw cells, result in words [4]: effective in reducing protein aggregation

Reference: article PMC7463714, “Design and Synthesis of Novel Hybrid 8-Hydroxy Quinoline-Indole Derivatives as Inhibitors of Aβ Self-Aggregation and Metal Chelation-Induced Aβ Aggregation” (Molecules, 2020)
